Experimental data: PubChem BioAssay (NCI)
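Results reflect a 48-hour exposure of cells in 96-well plates to compound at five concentrations. TGI: total growth inhibition.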

Experiments:
Test in all cases: DTP human tumour cell line panel, 48 h
786-0 renal = system: 786-0 renal
A549 NSCLC = system: A549 NSCLC
ACHN renal = system: ACHN renal
CAKI-1 renal = system: CAKI-1 renal
CCRF-CEM leukemia = system: CCRF-CEM leukemia
COLO 205 colon = system: COLO 205 colon
DLD-1 colon = system: DLD-1 colon
DMS 114 small cell lung = system: DMS 114 small cell lung
EKVX NSCLC = system: EKVX NSCLC
HCC-2998 colon = system: HCC-2998 colon
HCT-116 colon = system: HCT-116 colon
HCT-15 colon = system: HCT-15 colon
HL-60(TB) leukemia = system: HL-60(TB) leukemia
HOP-62 NSCLC = system: HOP-62 NSCLC
HOP-92 NSCLC = system: HOP-92 NSCLC
HT29 colon = system: HT29 colon
IGROV1 ovarian = system: IGROV1 ovarian
K-562 leukemia = system: K-562 leukemia
KM12 colon = system: KM12 colon
KM20L2 colon = system: KM20L2 colon
LOX IMVI melanoma = system: LOX IMVI melanoma
LXFL 529 NSCLC = system: LXFL 529 NSCLC
M14 melanoma = system: M14 melanoma
M19-MEL melanoma = system: M19-MEL melanoma
MALME-3M melanoma = system: MALME-3M melanoma
MOLT-4 leukemia = system: MOLT-4 leukemia
NCI-H226 lung = system: NCI-H226 lung
NCI-H23 lung = system: NCI-H23 lung
NCI-H522 lung = system: NCI-H522 lung
OVCAR-3 ovarian = system: OVCAR-3 ovarian
OVCAR-4 ovarian = system: OVCAR-4 ovarian
OVCAR-5 ovarian = system: OVCAR-5 ovarian
RPMI-8226 leukemia = system: RPMI-8226 leukemia
SF-268 CNS = system: SF-268 CNS
SF-295 CNS = system: SF-295 CNS
SF-539 CNS = system: SF-539 CNS
SK-MEL-2 melanoma = system: SK-MEL-2 melanoma
SK-MEL-28 melanoma = system: SK-MEL-28 melanoma
SK-MEL-5 melanoma = system: SK-MEL-5 melanoma
SK-OV-3 ovarian = system: SK-OV-3 ovarian
SN12C renal = system: SN12C renal
SNB-19 CNS = system: SNB-19 CNS
SNB-75 CNS = system: SNB-75 CNS
SNB-78 CNS = system: SNB-78 CNS
SR leukemia = system: SR leukemia
SW-620 colon = system: SW-620 colon
TK-10 renal = system: TK-10 renal
U251 CNS = system: U251 CNS
UACC-257 melanoma = system: UACC-257 melanoma
UACC-62 melanoma = system: UACC-62 melanoma
UO-31 renal = system: UO-31 renal
XF 498 CNS = system: XF 498 CNS
A498 renal = system: A498 renal
DMS 273 small cell lung = system: DMS 273 small cell lung
NCI-H460 lung = system: NCI-H460 lung
OVCAR-8 ovarian = system: OVCAR-8 ovarian
RXF 393 renal = system: RXF 393 renal

SMILES: c1ccc(C2N=NN(c3ccccc3)C2N2CCCCC2)cc1 (stereo not drawn)
- TGI (786-0 renal): > 100 µM
- TGI (A549 NSCLC): > 100 µM
- TGI (ACHN renal): > 100 µM
- TGI (CAKI-1 renal): > 100 µM
- TGI (CCRF-CEM leukemia): > 100 µM
- TGI (COLO 205 colon): > 100 µM
- TGI (DLD-1 colon): > 100 µM
- TGI (DMS 114 small cell lung): > 100 µM
- TGI (EKVX NSCLC): > 100 µM
- TGI (HCC-2998 colon): > 100 µM
- TGI (HCT-116 colon): > 100 µM
- TGI (HCT-15 colon): > 100 µM
- TGI (HL-60(TB) leukemia): > 100 µM
- TGI (HOP-62 NSCLC): > 100 µM
- TGI (HOP-92 NSCLC): 62.4 µM
- TGI (HT29 colon): > 100 µM
- TGI (IGROV1 ovarian): > 100 µM
- TGI (K-562 leukemia): > 100 µM
- TGI (KM12 colon): > 100 µM
- TGI (KM20L2 colon): > 100 µM
- TGI (LOX IMVI melanoma): > 100 µM
- TGI (LXFL 529 NSCLC): > 100 µM
- TGI (M14 melanoma): > 100 µM
- TGI (M19-MEL melanoma): > 100 µM
- TGI (MALME-3M melanoma): > 100 µM
- TGI (MOLT-4 leukemia): > 100 µM
- TGI (NCI-H226 lung): > 100 µM
- TGI (NCI-H23 lung): > 100 µM
- TGI (NCI-H522 lung): > 100 µM
- TGI (OVCAR-3 ovarian): > 100 µM
- TGI (OVCAR-4 ovarian): > 100 µM
- TGI (OVCAR-5 ovarian): > 100 µM
- TGI (RPMI-8226 leukemia): > 100 µM
- TGI (SF-268 CNS): > 100 µM
- TGI (SF-295 CNS): > 100 µM
- TGI (SF-539 CNS): > 100 µM
- TGI (SK-MEL-2 melanoma): > 100 µM
- TGI (SK-MEL-28 melanoma): > 100 µM
- TGI (SK-MEL-5 melanoma): > 100 µM
- TGI (SK-OV-3 ovarian): 98.3 µM
- TGI (SN12C renal): > 100 µM
- TGI (SNB-19 CNS): > 100 µM
- TGI (SNB-75 CNS): 55 µM
- TGI (SNB-78 CNS): > 100 µM
- TGI (SR leukemia): > 100 µM
- TGI (SW-620 colon): > 100 µM
- TGI (TK-10 renal): > 100 µM
- TGI (U251 CNS): > 100 µM
- TGI (UACC-257 melanoma): > 100 µM
- TGI (UACC-62 melanoma): > 100 µM
- TGI (UO-31 renal): > 100 µM
- TGI (XF 498 CNS): > 100 µM

SMILES: CCN(CC)c1ccc2cc3ccc(=[N+](CC)CC)cc-3oc2c1
- TGI (786-0 renal): 7.73 µM
- TGI (A498 renal): 29.8 µM
- TGI (A549 NSCLC): 16.6 µM
- TGI (ACHN renal): 7.39 µM
- TGI (CAKI-1 renal): 18 µM
- TGI (CCRF-CEM leukemia): 6.33 µM
- TGI (COLO 205 colon): 2.05 µM
- TGI (DLD-1 colon): 14.5 µM
- TGI (DMS 114 small cell lung): 3.8 µM
- TGI (DMS 273 small cell lung): 2.49 µM
- TGI (EKVX NSCLC): 19.9 µM
- TGI (HCC-2998 colon): 19 µM
- TGI (HCT-116 colon): 1.77 µM
- TGI (HCT-15 colon): 12.7 µM
- TGI (HL-60(TB) leukemia): 0.532 µM
- TGI (HOP-62 NSCLC): 13.7 µM
- TGI (HOP-92 NSCLC): 3.13 µM
- TGI (HT29 colon): 4.48 µM
- TGI (IGROV1 ovarian): 8.36 µM
- TGI (K-562 leukemia): > 100 µM
- TGI (KM12 colon): 1.92 µM
- TGI (KM20L2 colon): 12.1 µM
- TGI (LOX IMVI melanoma): 1.98 µM
- TGI (LXFL 529 NSCLC): 1.79 µM
- TGI (M14 melanoma): 6.03 µM
- TGI (MALME-3M melanoma): 2.78 µM
- TGI (MOLT-4 leukemia): 2.09 µM
- TGI (NCI-H226 lung): 15.4 µM
- TGI (NCI-H23 lung): 3.04 µM
- TGI (NCI-H460 lung): 6.62 µM
- TGI (NCI-H522 lung): 5.7 µM
- TGI (OVCAR-3 ovarian): 2.11 µM
- TGI (OVCAR-4 ovarian): 26.1 µM
- TGI (OVCAR-5 ovarian): 19.6 µM
- TGI (OVCAR-8 ovarian): 1.84 µM
- TGI (RPMI-8226 leukemia): 3.16 µM
- TGI (RXF 393 renal): 11.6 µM
- TGI (SF-268 CNS): 2.75 µM
- TGI (SF-295 CNS): 16.3 µM
- TGI (SF-539 CNS): 5.12 µM
- TGI (SK-MEL-2 melanoma): 2.99 µM
- TGI (SK-MEL-28 melanoma): 10.3 µM
- TGI (SK-MEL-5 melanoma): 7.76 µM
- TGI (SK-OV-3 ovarian): 13.6 µM
- TGI (SN12C renal): 2.33 µM
- TGI (SNB-19 CNS): 23.3 µM
- TGI (SNB-75 CNS): 16.3 µM
- TGI (SNB-78 CNS): 11.1 µM
- TGI (SR leukemia): 1.52 µM
- TGI (SW-620 colon): 1.43 µM
- TGI (TK-10 renal): 17.2 µM
- TGI (U251 CNS): 2.02 µM
- TGI (UACC-257 melanoma): 10.4 µM
- TGI (UACC-62 melanoma): 9.36 µM
- TGI (UO-31 renal): 8.52 µM
- TGI (XF 498 CNS): 7.99 µM
